Reference: patent US20150141411A1, “SUBSTITUTED 3,4-DIHYDRO-2H-PYRIDO[1,2-A]PYRAZINE-1,6-DIONE DERIVATIVES USEFUL FOR THE TREATMENT OF (INTER ALIA) ALZHEIMER'S DISEASE” (Janssen Pharmaceuticals, Inc., priority 2012, published 2015)

Key:
γ-secretase [1] = biological target: T1, γ-secretase (Homo sapiens, UniProt P49768); assay: Screening for γ-secretase-modulating activity: Aβ42 in supernatant of SKNBE2 cells carrying hAPP 695 wild type (Alphalisa); format: cell-based; conditions: SKNBE2 human neuroblastoma cells carrying hAPP 695 wild type, overnight incubation, Aβ42 in cell supernatant
T1 construct: endogenous in cells; host or cells: SKNBE2 human neuroblastoma cells (carrying hAPP 695 wild type as substrate)
Procedure: (§1) Screening was carried out using SKNBE2 human neuroblastoma cells carrying the hAPP 695—wild type, grown in Dulbecco's Modified Eagle's Medium/Nutrient mixture F-12 (DMEM/NUT-mix F-12) (HAM) provided by Invitrogen (cat no. 10371-029) containing 5% Serum/Fe supplemented with 1% non-essential amino acids, 1-glutamine 2 mM, Hepes 15 mM, penicillin 50 U/ml (units/ml) en streptomycin 50 μg/ml. Cells were grown to near confluency.
(§2) The screening was performed using a modification of the assay as described in Citron et al (1997) Nature Medicine 3: 67. Briefly, cells were plated in a 384-well plate at 10^4 cells/well in Ultraculture (Lonza, BE12-725F) supplemented with 1% glutamine (Invitrogen, 25030-024), 1% non-essential amino acid (NEAA), penicillin 50 U/ml en streptomycin 50 μg/ml in the presence of test compound at different test concentrations. The cell/compound mixture was incubated overnight at 37° C., 5% CO2. The next day the media were assayed by two sandwich immuno-assays, for Aβ42 and Aβ total.
(§3) Aβtotal and Aβ42 concentrations were quantified in the cell supernatant using the Aphalisa technology (Perkin Elmer). Alphalisa is a sandwich assay using biotinylated antibody attached to streptavidin coated donorbeads and antibody conjugated to acceptor beads. In the presence of antigen, the beads come into close proximity. The excitation of the donor beads provokes the release of singlet oxygen molecules that trigger a cascade of energy transfer in the acceptor beads, resulting in light emission. To quantify the amount of Aβ42 in the cell supernatant, monoclonal antibody specific to the C-terminus of Aβ42 (JRF/cAβ42/26) was coupled to the receptor beads and biotinylated antibody specific to the N-terminus of Aβ (JRF/AβN/25) was used to react with the donor beads. To quantify the amount of Aβtotal in the cell supernatant, monoclonal antibody specific to the N-terminus of Aβ (JRF/AβN/25) was coupled to the receptor beads and biotinylated antibody specific to the mid region of Aβ (biotinylated 4G8) was used to react with the donor beads.
(§4) To obtain the values reported in Table 3, the data are calculated as percentage of the maximum amount of amyloid Beta 42 measured in the absence of the test compound. The sigmoidal dose response curves were analyzed using non-linear regression analysis with percentage of the control plotted against the log concentration of the compound. A 4-parameter equation was used to determine the IC50.

γ-secretase [2] = biological target: T1, γ-secretase; assay: Screening for γ-secretase-modulating activity: Aβtotal in supernatant of SKNBE2 cells carrying hAPP 695 wild type (Alphalisa); format: cell-based; conditions: SKNBE2 human neuroblastoma cells carrying hAPP 695 wild type, overnight incubation, Aβtotal in cell supernatant
Procedure: as §1, §2, §3, §4

IC50 (γ-secretase [1]) [nM]	IC50 (γ-secretase [2]) [nM]	Compound
2290	> 10000	Cc1cn(-c2ccc3n(c2=O)CCN(CCCC(C)(C)C)C3=O)cn1 [compound 15]
> 10000	> 10000	CCCc1nccn1-c1ccc2n(c1=O)CCN(CCC1CC1)C2=O [compound 16]
> 10000	> 10000	CCCc1nccn1-c1ccc2n(c1=O)CCN(CC1CC1)C2=O [compound 17]
6760	> 10000	Cc1cn(-c2ccc3n(c2=O)CCN(Cc2ccccc2)C3=O)cn1 [compound 19]
1100	> 10000	Cc1cn(-c2ccc3n(c2=O)C[C@@H](C)N(Cc2cccc(Cl)c2)C3=O)cn1 [compound 24]
1660	> 10000	Cc1cn(-c2ccc3n(c2=O)C[C@@H](C2CC2)N(Cc2ccc(Cl)c(Cl)c2)C3=O)cn1 [compound 33]
950	> 10000	Cc1cn(-c2ccc3n(c2=O)CCN(Cc2cccc(Cl)c2F)C3=O)cn1 [compound 39]
> 10000	> 10000	Cc1cn(-c2ccc3n(c2=O)CCN(c2ccc(F)cc2C)C3=O)cn1 [compound 41]
540	> 10000	Cc1cn(-c2ccc3n(c2=O)C[C@@H](CO)N(Cc2cc(C(F)(F)F)cc(C(F)(F)F)c2)C3=O)cn1 [compound 45]
260	> 10000	COC[C@@H]1Cn2c(ccc(-n3cnc(C)c3)c2=O)C(=O)N1Cc1cc(C(F)(F)F)cc(C(F)(F)F)c1 [compound 47]
580	> 10000	Cc1cn(-c2ccc3n(c2=O)C[C@@H](CN(C)C)N(Cc2cc(C(F)(F)F)cc(C(F)(F)F)c2)C3=O)cn1 [compound 48]
3390	> 10000	CNC[C@@H]1Cn2c(ccc(-n3cnc(C)c3)c2=O)C(=O)N1Cc1cc(C(F)(F)F)cc(C(F)(F)F)c1 [compound 49]
500	> 10000	Cc1cn(-c2ccc3n(c2=O)CCN(C(c2cc(C(F)(F)F)cc(C(F)(F)F)c2)C2CCOCC2)C3=O)cn1 (centres unmarked) [compound 51]
1260	> 10000	COCC(c1cc(C(F)(F)F)cc(C(F)(F)F)c1)N1CCn2c(ccc(-n3cnc(C)c3)c2=O)C1=O (centres unmarked) [compound 54]
660	> 10000	Cc1cc(CN2CCn3c(ccc(-n4cnc(C)c4)c3=O)C2=O)cc(C(F)(F)F)c1 [compound 60]
480	> 10000	Cc1cn(-c2ccc3n(c2=O)C[C@@H](C)N(Cc2cccc(C(F)(F)F)c2C)C3=O)cn1 [compound 61]
690	> 10000	Cc1cn(-c2ccc3n(c2=O)CCN(Cc2cccc(C(F)(F)F)c2Cl)C3=O)cn1 [compound 64]
3890	> 10000	COc1cccc(CN2CCn3c(ccc(-n4cnc(C)c4)c3=O)C2=O)c1 [compound 66]
280	> 10000	Cc1cn(-c2ccc3n(c2=O)C[C@@H](C)N(Cc2cc(C(F)(F)F)ccc2Cl)C3=O)cn1 [compound 71]
190	> 10000	Cc1cn(-c2ccc3n(c2=O)C[C@@H](C)N(Cc2cc(C(F)(F)F)ccc2C)C3=O)cn1 [compound 72]
190	> 10000	CCOCc1cc(CN2C(=O)c3ccc(-n4cnc(C)c4)c(=O)n3C[C@H]2C)cc(C(F)(F)F)c1 [compound 76]
190	> 10000	COc1cc(C)c(CN2C(=O)c3ccc(-n4cnc(C)c4)c(=O)n3C[C@H]2C)cc1C(C)C [compound 77]
280	> 10000	Cc1cn(-c2ccc3n(c2=O)C[C@@H](C)N(Cc2cccc(OC(F)(F)F)c2)C3=O)cn1 [compound 79]

IC50 (γ-secretase [1]) [nM]	IC50 (γ-secretase [2]) [nM]	Compound
220	> 10000	Cc1cn(-c2ccc3n(c2=O)C[C@@H](C)N(Cc2cc(N4CCC(C(F)(F)F)CC4)ccc2Cl)C3=O)cn1 [compound 81]
1350	> 10000	Cc1cn(-c2ccc3n(c2=O)C[C@@H](C)N(Cc2cccc(-n4nc(C)cc4C)c2)C3=O)cn1 [compound 83]
60	> 10000	Cc1cn(-c2ccc3n(c2=O)C[C@@H](C)N(Cc2ccc(Cl)c(N4CCCCC4)c2)C3=O)cn1 [compound 85]
30	> 10000	Cc1cn(-c2ccc3n(c2=O)C[C@@H](C)N(Cc2cc(N4CCCCC4)cc(C(F)(F)F)c2)C3=O)cn1 [compound 86]
7760	> 10000	Cc1cn(-c2ccc3n(c2=O)CCN(Cc2cccc(-c4ccccc4)c2)C3=O)c(C)n1 [compound 87]
490	> 10000	Cc1ccc2cc(CN3CCn4c(ccc(-n5cnc(C)c5)c4=O)C3=O)ccc2c1 [compound 94]
2880	> 10000	Cc1cn(-c2ccc3n(c2=O)CCN(Cc2nccc(OCC(F)(F)F)c2C)C3=O)cn1 [compound 98]
> 10000	> 10000	Cc1cn(-c2ccc3n(c2=O)CCN(CCc2c[nH]c4ccccc24)C3=O)cn1 [compound 104]
4790	> 10000	Cc1nccn1-c1ccc2n(c1=O)CCN(Cc1cccc(-c3ccccc3)c1)C2=O [compound 108]
2090	> 10000	O=C1c2ccc(-n3ccnc3)c(=O)n2CCN1Cc1cccc(-c2ccccc2)c1 [compound 109]
1910	> 10000	Cc1cn(-c2ccc3n(c2=O)C[C@@H](C)N(Cc2ccc(C)c(-n4cccn4)c2)C3=O)cn1 [compound 114]
> 10000	> 10000	Cc1cncn1-c1ccc2n(c1=O)CCCN(Cc1ccc(Cl)c(Cl)c1)C2=O [compound 122]
190	> 10000	Cc1cn(-c2ccc3n(c2=O)CCC(C)N(Cc2cc(C(F)(F)F)cc(C(F)(F)F)c2)C3=O)cn1 (centres unmarked) [compound 123]
50	> 10000	Cc1cn(-c2ccc3n(c2=O)CC(C)N(Cc2c[nH]c4cc(Br)ccc24)C3=O)cn1 (centres unmarked) [compound 125]
30	> 10000	Cc1cn(-c2ccc3n(c2=O)C[C@@H](C)N(Cc2cn(C)c4ccc(Cl)cc24)C3=O)cn1 [compound 137]
40	> 10000	Cc1cn(-c2ccc3n(c2=O)C[C@@H](C)N(Cc2c[nH]c4ccc(Cl)cc24)C3=O)cn1 [compound 138]
950	> 10000	Cc1cn(-c2ccc3n(c2=O)C[C@@H](C)N(Cc2cc(F)cc(OC(F)(F)F)c2)C3=O)cn1 [compound 139]
70	> 10000	Cc1cn(-c2ccc3n(c2=O)C[C@@H](C)N(Cc2cc(Br)cc(OC(F)(F)F)c2)C3=O)cn1 [compound 152]
30	> 10000	Cc1cn(-c2ccc3n(c2=O)C[C@@H](C)N(CCc2cc(OC(C)C)cc(C(F)(F)F)c2)C3=O)cn1 [compound 156]
280	> 10000	Cc1cn(-c2cc(Cl)c3n(c2=O)C[C@@H](C)N(Cc2cc(C(F)(F)F)cc(C(F)(F)F)c2)C3=O)cn1 [compound 159]
790	> 10000	Cc1cn(-c2c(C)cc3n(c2=O)C[C@@H](C)N(Cc2cc(C(F)(F)F)cc(C(F)(F)F)c2)C3=O)cn1 [compound 161]
100	> 10000	Cc1cn(-c2ccc3n(c2=O)C[C@@H](C)N(Cc2ccc(C)c(OCC4CC4)c2)C3=O)cn1 [compound 162]
170	> 10000	Cc1cn(-c2ccc3n(c2=O)C[C@@H](C)N(Cc2cc(OC(C)C)c(Cl)cc2F)C3=O)cn1 [compound 163]
